Data published in patent publication US12584906B2, “Coating agent for inducing differentiation of pluripotent stem cells into brain microvascular endothelium-like cells and use thereof” (PUBLIC UNIVERSITY CORPORATION NAGOYA CITY UNIVERSITY, priority 2020, dated 2026).
Blank lines part the entries; values can stand above or below the substance they belong to.

Columns and labels:
[1] = tested on: iBMECs derived from 610B1 strain; experiment: Relative TEER values of iBMECs induced and differentiated on each coating layer (day 10 of differentiation); assay type: cell-based, human; settings: for TEER value compared with iBMECs induced and differentiated on Matrigel: coating 1 μg/cm^2, FIG. 2
Procedure: A coating layer was formed using each of the above-described coating agents. Matrigel was diluted 30-fold with a maintenance medium for human iPS cells on ice, poured onto a well plate, and allowed to stand at 37° C. for 30 minutes or longer to form a coating layer. FBN, VTN-N, LN221F, LN411F, or LN511F was diluted with PBS so as to be 1 μg/cm^2, poured onto a well plate, and allowed to stand at 37° C. for 1 hour to 2 hours to form a coating layer. In addition, a mixture of Fibronectin and Collagen type IV was diluted with PBS so as to be 100 μg/mL and 400 μg/mL, respectively, poured onto a Transwell insert, and allowed to stand at 37° C. for 2 hours or longer to form a coating layer.
FIG. 1 is a scheme illustrating a protocol for differentiating human iPS cells into iBMECs. […] The differentiation induction was started in a state in which at the time of passage, the cells were seeded on a culture dish coated with each coating agent and cultured in StemSure hPSC medium containing […] FGF2 until the proportion of undifferentiated colonies reached about 60 to 70% (day 0 of differentiation). […]
TEER values of iBMECs (on day 10 of differentiation) derived from 610B1 strain, which cells had been induced and differentiated on Matrigel or FBN, VTN-N, LN221F, LN411F, or LN511F, were measured. The number of samples was 3, and relative TEER values of iBMECs induced and differentiated on FBN, VTN-N, LN221F, LN411F, or LN511F were determined based on the TEER values of iBMECs induced and differentiated on Matrigel (hereinafter, also referred to as “Matrigel-iBMECs”). In addition, for each of 610B1 strain or 648A1 strain, the TEER values of Matrigel-iBMECs or iBMECs induced and differentiated on LN221F (hereinafter, also referred to as “LN221F-iBMECs”) were measured from day 1 after seeding (day 9 of differentiation) to day 10 after seeding (day 18 of differentiation). The number of samples was set to 6, and the time-course change of the TEER values was determined. The TEER values were measured using a Millicell ERS-2 (chopstick type) according to the attached instructions. […]

[2] = tested on: iBMECs derived from 610B1 strain; experiment: Time-course change in TEER values, 610B1 strain; assay type: cell-based, human; settings: FIG. 3
Procedure: (§1) A coating layer was formed using each of the above-described coating agents. Matrigel was diluted 30-fold with a maintenance medium for human iPS cells on ice, poured onto a well plate, and allowed to stand at 37° C. for 30 minutes or longer to form a coating layer. FBN, VTN-N, LN221F, LN411F, or LN511F was diluted with PBS so as to be 1 μg/cm^2, poured onto a well plate, and allowed to stand at 37° C. for 1 hour to 2 hours to form a coating layer. In addition, a mixture of Fibronectin and Collagen type IV was diluted with PBS so as to be 100 μg/mL and 400 μg/mL, respectively, poured onto a Transwell insert, and allowed to stand at 37° C. for 2 hours or longer to form a coating layer. […]
(§2) TEER values of iBMECs (on day 10 of differentiation) derived from 610B1 strain, which cells had been induced and differentiated on Matrigel or FBN, VTN-N, LN221F, LN411F, or LN511F, were measured. The number of samples was 3, and relative TEER values of iBMECs induced and differentiated on FBN, VTN-N, LN221F, LN411F, or LN511F were determined based on the TEER values of iBMECs induced and differentiated on Matrigel (hereinafter, also referred to as “Matrigel-iBMECs”). […] The number of samples was set to 6, and the time-course change of the TEER values was determined. The TEER values were measured using a Millicell ERS-2 (chopstick type) according to the attached instructions. […]

[3] = tested on: iBMECs derived from 648A1 strain; experiment: Time-course change in TEER values, 648A1 strain; assay type: cell-based, human; settings: FIG. 4
Procedure: as §1, §2

[4] = tested on: iBMECs derived from 610B1 strain; experiment: Test for permeability of FD4 or LY, 610B1 strain; assay type: cell-based, human; settings: 60 minutes, day 10 of differentiation
Procedure: (§3) FD4 or LY permeability was tested on Matrigel-iBMECs and LN221F-iBMECs derived from each of 610B1 or 648A1 strain. The number of samples was 6. On day 10 of differentiation, the culture medium was replaced with a transport buffer (HBSS containing 10 mM HEPES solution), and the cells were cultured at 37° C. for 20 minutes. The transport buffer containing 1 mg/mL FD4 or 300 μM LY was added to the apical side. After incubation at 37° C. for 60 minutes, 100 μL of the solution was collected from the basolateral side. The volume of transport buffer was 300 μL on the apical side and 800 μL on the basal side. The fluorescence intensity of FD4 or LY was measured with a Synergy HTX multimode plate reader and analyzed by Gen5 data analysis software.

[5] = tested on: iBMECs derived from 648A1 strain; experiment: Test for permeability of FD4 or LY, 648A1 strain; assay type: cell-based, human; settings: 60 minutes, day 10 of differentiation
Procedure: as §3

[6] = tested on: iBMECs derived from strain 610B1; experiment: Analysis of expression levels of BMEC marker genes by RT-q PCR; assay type: cell-based, human; settings: CDHS, MDR1, BCRP, ZO-1, Occludin, GLUT1, LAT1; day 10 of differentiation, corrected with HPRT1, FIG. 7
Procedure: Extraction was performed according to the attached instructions of Agencourt (registered trademark) RNAdvance Tissue Kit.
Complementary DNA (cDNA) was synthesized using ReverTra Ace (registered trademark) qPCR RT Master Mix according to the attached instructions.
The levels of gene expression in Matrigel-iBMECs or LN221F-iBMECs derived from strain 610B1 (on day 10 of differentiation) or human-derived primary BMECs (hereinafter, also referred to as “hBMECs”) were analyzed by RT-q PCR. The number of samples for Matrigel-iBMECs or LN221F-iBMECs was 3, and the number of samples for hBMECs was 1. RT-q PCR was performed with KAPA SYBR Fast qPCR Kit while using cDNA as a template according to the attached instructions. The results obtained were corrected using HPRT1 as an internal control. The relative expression levels of mRNA in LN221F-iBMECs or hBMECs were determined based on the expression levels of mRNA in Matrigel-iBMECs. […]

[7] = tested on: iBMECs derived from 610B1 strain; experiment: Protein expression of BMEC markers by immunostaining; assay type: cell-based, human; settings: CDH5, P-gp, BCRP, ZO-1, Occludin, Claudin 5; day 10 of differentiation, FIG. 8
Procedure: Matrigel-iBMECs or LN221F-iBMECs (on day 10 of differentiation) derived from 610B1 strain were analyzed by immunostaining in order to analyze the expression levels and localizations of BMEC marker proteins. For Zonula Occludens-1 (ZO-1) and Occludin, the cells on a 96-well plate were fixed in 4 w/v % paraformaldehyde for 15 minutes at room temperature, washed twice with glycine-containing PBS, and then permeabilized with 0.1 w/v % Triton X-100-containing PBS for 25 minutes at room temperature. After blocking for 20 min at room temperature with 5% donkey serum, each primary antibody was used for reaction for 2 hours at room temperature. After washed three times with PBS, the cells were reacted with the secondary antibody, which had been diluted 200-fold, for 60 minutes at room temperature. At this time, 1 μg/mL DAPI as a nuclear staining reagent was mixed in the reaction at the same time. Thereafter, the cells were washed three times with PBS, and were analyzed with an Operetta high content imaging system. […]

P-gp = biological target: T1, P-gp (Homo sapiens, UniProt P08183); experiment: Substrate uptake test, P-gp function (rhodamine 123 with or without cyclosporine A); assay type: cell-based; settings: 10 μM rhodamine 123, 10 μM cyclosporine A, 60 minutes at 37° C., FIG. 9
T1 construct: endogenous in cells; host or cells: Matrigel-iBMECs or LN221F-iBMECs derived from 610B1 strain (iPS cells), day 10 of differentiation
T1 sequence (P08183 whole entry): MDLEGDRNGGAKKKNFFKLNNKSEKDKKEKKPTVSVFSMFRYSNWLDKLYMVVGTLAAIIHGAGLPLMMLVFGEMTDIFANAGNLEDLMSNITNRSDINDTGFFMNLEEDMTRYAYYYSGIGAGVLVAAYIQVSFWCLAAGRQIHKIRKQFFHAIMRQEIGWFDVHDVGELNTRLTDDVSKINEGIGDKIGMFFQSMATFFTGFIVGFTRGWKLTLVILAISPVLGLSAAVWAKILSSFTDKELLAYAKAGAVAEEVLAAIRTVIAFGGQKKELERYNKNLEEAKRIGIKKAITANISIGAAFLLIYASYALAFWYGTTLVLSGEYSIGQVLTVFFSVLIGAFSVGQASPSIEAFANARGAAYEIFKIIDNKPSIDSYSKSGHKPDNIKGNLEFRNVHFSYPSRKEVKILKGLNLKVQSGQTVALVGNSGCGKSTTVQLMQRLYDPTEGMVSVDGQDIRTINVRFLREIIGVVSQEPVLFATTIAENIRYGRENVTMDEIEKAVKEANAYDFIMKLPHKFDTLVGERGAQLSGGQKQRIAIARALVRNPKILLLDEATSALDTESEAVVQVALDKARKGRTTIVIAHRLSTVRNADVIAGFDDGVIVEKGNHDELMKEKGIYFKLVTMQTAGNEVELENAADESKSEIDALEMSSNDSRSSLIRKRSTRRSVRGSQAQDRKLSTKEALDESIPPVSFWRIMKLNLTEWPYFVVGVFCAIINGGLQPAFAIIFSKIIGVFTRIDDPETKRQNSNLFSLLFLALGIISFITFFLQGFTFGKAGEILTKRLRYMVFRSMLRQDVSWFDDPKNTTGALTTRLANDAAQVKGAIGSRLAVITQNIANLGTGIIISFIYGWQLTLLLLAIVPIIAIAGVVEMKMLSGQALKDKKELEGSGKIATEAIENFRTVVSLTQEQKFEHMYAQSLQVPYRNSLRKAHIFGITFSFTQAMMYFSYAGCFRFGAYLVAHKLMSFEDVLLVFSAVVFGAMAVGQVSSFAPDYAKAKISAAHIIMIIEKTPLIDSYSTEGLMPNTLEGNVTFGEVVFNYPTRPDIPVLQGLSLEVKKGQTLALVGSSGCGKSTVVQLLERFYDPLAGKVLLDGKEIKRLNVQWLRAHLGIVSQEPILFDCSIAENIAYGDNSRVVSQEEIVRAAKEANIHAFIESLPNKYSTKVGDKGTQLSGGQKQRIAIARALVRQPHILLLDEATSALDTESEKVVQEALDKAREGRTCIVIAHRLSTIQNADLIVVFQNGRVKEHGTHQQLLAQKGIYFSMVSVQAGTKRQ
Procedure: (§4) For functional analysis of P-gp and BCRP as efflux transporters, Matrigel-iBMECs or LN221F-iBMECs (on day 10 of differentiation) derived from 610B1 strain were tested for substrate uptake. As the substrate, rhodamine 123 or Hoechst 33342 was used. The culture medium was removed and the cells on a 96-well plate were pre-incubated in a transport buffer for 15 minutes at 37° C. Note that the number of samples was 6. The cells were incubated, in the presence or absence of 10 μM cyclosporine A (CsA), an inhibitor of P-gp, or 20 μM Ko 143, an inhibitor of BCRP, in a transport buffer containing 10 μM rhodamine 123 or 10 μM Hoechst 33342 for 60 minutes at 37° C. The cells were then washed three times with PBS and lysed in PBS containing 5 w/v % Triton X-100. The fluorescence intensities of rhodamine 123 or Hoechst 33342 were measured with a Synergy HTX multimode plate reader and analyzed by Gen5 data analysis software.

BCRP = biological target: T2, BCRP (Homo sapiens, UniProt Q9UNQ0); experiment: Substrate uptake test, BCRP function (Hoechst 33342 with or without Ko 143); assay type: cell-based; settings: 10 μM Hoechst 33342, 20 μM Ko 143, 60 minutes at 37° C., FIG. 10
T2 construct: endogenous in cells; host or cells: Matrigel-iBMECs or LN221F-iBMECs derived from 610B1 strain (iPS cells), day 10 of differentiation
T2 sequence (Q9UNQ0 1-655): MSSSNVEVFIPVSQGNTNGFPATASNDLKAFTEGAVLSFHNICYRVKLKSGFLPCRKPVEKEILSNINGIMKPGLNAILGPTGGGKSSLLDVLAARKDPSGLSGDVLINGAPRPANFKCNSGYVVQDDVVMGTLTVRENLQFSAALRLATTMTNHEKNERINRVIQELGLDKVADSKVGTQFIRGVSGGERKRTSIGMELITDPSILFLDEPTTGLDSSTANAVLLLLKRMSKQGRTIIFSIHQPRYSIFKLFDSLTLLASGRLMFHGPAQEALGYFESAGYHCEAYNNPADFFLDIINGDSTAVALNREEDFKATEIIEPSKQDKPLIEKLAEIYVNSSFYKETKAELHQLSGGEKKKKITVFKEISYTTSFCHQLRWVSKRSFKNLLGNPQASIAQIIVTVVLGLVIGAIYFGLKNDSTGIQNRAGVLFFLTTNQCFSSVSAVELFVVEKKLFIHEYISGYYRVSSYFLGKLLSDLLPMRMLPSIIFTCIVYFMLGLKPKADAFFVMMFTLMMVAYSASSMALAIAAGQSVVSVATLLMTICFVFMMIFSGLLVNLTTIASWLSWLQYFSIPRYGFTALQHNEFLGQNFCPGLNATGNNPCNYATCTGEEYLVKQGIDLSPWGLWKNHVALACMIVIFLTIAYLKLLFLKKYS
Procedure: as §4

- accumulation of substrate in the presence of the inhibitor versus absence (P-gp function) (P-gp): larger
- accumulation of substrate in the presence of the inhibitor versus absence (BCRP function) (BCRP): larger
Substance: Laminin-221 fragment [LN221F]
- relative TEER value (Matrigel-iBMECs set to 1.0) ([1]; FIG. 2): about 2 times
- TEER value compared with iBMECs induced and differentiated on Matrigel [1]: higher TEER value
- TEER value compared with Matrigel-iBMECs over a long period of time ([2]; day 1 to day 10 after seeding): higher TEER value
- TEER value ([2]; over a long period of time): ≥ 1000 Ω×cm^2
- TEER value compared with Matrigel-iBMECs over a long period of time ([3]; day 1 to day 10 after seeding): higher TEER value
- TEER value ([3]; over a long period of time): ≥ 1000 Ω×cm^2
- permeability coefficient of LY compared with Matrigel-iBMECs ([4]; 300 μM LY apical, FIG. 6): lower permeability coefficient
- permeability coefficient of FD4 compared with Matrigel-iBMECs ([4]; 1 mg/mL FD4 apical, FIG. 5): lower permeability coefficient
- permeability coefficient of LY compared with Matrigel-iBMECs ([5]; 300 μM LY apical, FIG. 6): lower permeability coefficient
- permeability coefficient of FD4 compared with Matrigel-iBMECs ([5]; 1 mg/mL FD4 apical, FIG. 5): lower permeability coefficient
- mRNA expression level of BMEC markers compared with Matrigel-iBMECs [6]: almost equivalent
- protein expression levels and localizations of BMEC markers compared with Matrigel-iBMECs [7]: almost equivalent

Substance: N-terminal Vitronectin [VTN-N]
- TEER value compared with iBMECs induced and differentiated on Matrigel [1]: higher TEER value
